Experimental data published in PubChem BioAssay (NCI).
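Test compounds were applied to cells in 96-well plates for 48 hours at 5 doses. GI50 is the concentration that inhibits growth by half. TGI is the concentration that stops growth completely.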

Legend:
Test in all cases: NCI anticancer screen, dose series, 48 h
A549 NSCLC = test system: A549 NSCLC
SF-268 CNS = test system: SF-268 CNS
SF-539 CNS = test system: SF-539 CNS
MDA-N = test system: MDA-N
ACHN renal = test system: ACHN renal
EKVX NSCLC = test system: EKVX NSCLC
HT29 colon = test system: HT29 colon
CCRF-CEM leukemia = test system: CCRF-CEM leukemia
NCI-H522 lung = test system: NCI-H522 lung
HOP-62 NSCLC = test system: HOP-62 NSCLC
NCI/ADR-RES ovarian = test system: NCI/ADR-RES ovarian
UACC-62 melanoma = test system: UACC-62 melanoma
DU-145 prostate = test system: DU-145 prostate
MOLT-4 leukemia = test system: MOLT-4 leukemia
NCI-H23 lung = test system: NCI-H23 lung
K-562 leukemia = test system: K-562 leukemia
HCT-116 colon = test system: HCT-116 colon
HOP-92 NSCLC = test system: HOP-92 NSCLC
SW-620 colon = test system: SW-620 colon
COLO 205 colon = test system: COLO 205 colon
SK-MEL-5 melanoma = test system: SK-MEL-5 melanoma
HCT-15 colon = test system: HCT-15 colon
SR leukemia = test system: SR leukemia
IGROV1 ovarian = test system: IGROV1 ovarian
NCI-H460 lung = test system: NCI-H460 lung
OVCAR-4 ovarian = test system: OVCAR-4 ovarian
SNB-75 CNS = test system: SNB-75 CNS
OVCAR-5 ovarian = test system: OVCAR-5 ovarian
RXF 393 renal = test system: RXF 393 renal
T-47D breast = test system: T-47D breast
M14 melanoma = test system: M14 melanoma
PC-3 prostate = test system: PC-3 prostate
OVCAR-8 ovarian = test system: OVCAR-8 ovarian
OVCAR-3 ovarian = test system: OVCAR-3 ovarian
SF-295 CNS = test system: SF-295 CNS
TK-10 renal = test system: TK-10 renal
KM12 colon = test system: KM12 colon
CAKI-1 renal = test system: CAKI-1 renal
SN12C renal = test system: SN12C renal
SNB-19 CNS = test system: SNB-19 CNS
SK-OV-3 ovarian = test system: SK-OV-3 ovarian
NCI-H226 lung = test system: NCI-H226 lung
SK-MEL-28 melanoma = test system: SK-MEL-28 melanoma
786-0 renal = test system: 786-0 renal
UACC-257 melanoma = test system: UACC-257 melanoma
U251 CNS = test system: U251 CNS
SK-MEL-2 melanoma = test system: SK-MEL-2 melanoma
HCC-2998 colon = test system: HCC-2998 colon
UO-31 renal = test system: UO-31 renal
MALME-3M melanoma = test system: MALME-3M melanoma
MDA-MB-231 breast = test system: MDA-MB-231 breast
HL-60(TB) leukemia = test system: HL-60(TB) leukemia
MDA-MB-435 = test system: MDA-MB-435
LOX IMVI melanoma = test system: LOX IMVI melanoma
RPMI-8226 leukemia = test system: RPMI-8226 leukemia
A498 renal = test system: A498 renal
BT-549 breast = test system: BT-549 breast
HS 578T breast = test system: HS 578T breast
MCF7 breast = test system: MCF7 breast

`Cc1ccc(-n2cc(-c3ccc(Cl)cc3)c3c(NN)ncnc32)cc1` showed a TGI (A549 NSCLC) of 15.3 µM, a TGI (SF-268 CNS) of 17.8 µM and a TGI (SF-539 CNS) of 11.3 µM. The TGI (MDA-N) was 63.2 µM, the TGI (ACHN renal) was 14.3 µM and the TGI (EKVX NSCLC) was 9.99 µM. For the same molecule, the TGI (HT29 colon) was 19 µM, the TGI (CCRF-CEM leukemia) was 2.52 µM and the TGI (NCI-H522 lung) was 15.8 µM. For the same molecule, the TGI (HOP-62 NSCLC) was 22.6 µM, the TGI (NCI/ADR-RES ovarian) was 15.3 µM and the TGI (UACC-62 melanoma) was 13.2 µM. It also gave a TGI (DU-145 prostate) of 12.8 µM, a TGI (MOLT-4 leukemia) of 11.5 µM and a TGI (NCI-H23 lung) of 12.5 µM. For the same molecule, the TGI (K-562 leukemia) was 12 µM, the TGI (HCT-116 colon) was 9.1 µM and the TGI (HOP-92 NSCLC) was 9.04 µM. For the same molecule, the TGI (SW-620 colon) was 26.2 µM, the TGI (COLO 205 colon) was 11.2 µM and the TGI (SK-MEL-5 melanoma) was 7.23 µM. The TGI (HCT-15 colon) was 26.1 µM, the TGI (SR leukemia) was 9.28 µM and the TGI (IGROV1 ovarian) was 11.2 µM. It also gave a TGI (NCI-H460 lung) of 14.1 µM, a TGI (OVCAR-4 ovarian) of 19.2 µM and a TGI (SNB-75 CNS) of 7.6 µM. For the same molecule, the TGI (OVCAR-5 ovarian) was 43.2 µM, the TGI (RXF 393 renal) was 7.31 µM and the TGI (T-47D breast) was 26.6 µM. For the same molecule, the TGI (M14 melanoma) was 3.75 µM, the TGI (PC-3 prostate) was 56.1 µM and the TGI (OVCAR-8 ovarian) was 7.02 µM. It also gave a TGI (OVCAR-3 ovarian) of 12.8 µM, a TGI (SF-295 CNS) of 10.7 µM and a TGI (TK-10 renal) of over 100 µM. For the same molecule, the TGI (KM12 colon) was 29 µM, the TGI (CAKI-1 renal) was 8.73 µM and the TGI (SN12C renal) was 13.9 µM. The TGI (SNB-19 CNS) was 40.9 µM, the TGI (SK-OV-3 ovarian) was 44.2 µM and the TGI (NCI-H226 lung) was 7.96 µM. The TGI (SK-MEL-28 melanoma) was 18.8 µM, the TGI (786-0 renal) was 11.1 µM and the TGI (UACC-257 melanoma) was 16.1 µM. The TGI (U251 CNS) was 15.6 µM, the TGI (SK-MEL-2 melanoma) was 47.1 µM and the TGI (HCC-2998 colon) was 22.2 µM. It also gave a TGI (UO-31 renal) of 12.3 µM, a TGI (MALME-3M melanoma) of 21.5 µM and a TGI (MDA-MB-231 breast) of over 100 µM. For the same molecule, the TGI (HL-60(TB) leukemia) was 4.99 µM, the TGI (MDA-MB-435) was 29.4 µM and the TGI (LOX IMVI melanoma) was 19.7 µM.
`C1=C/COCc2cc(ccc2OCCN2CCCC2)Nc2nccc(n2)-c2ccc(o2)COC/1` gave a GI50 (A549 NSCLC) of 2.23 µM, a TGI (A549 NSCLC) of 12 µM and a GI50 (SF-268 CNS) of 1.69 µM. It also gave a TGI (SF-268 CNS) of 4.45 µM, a GI50 (SF-539 CNS) of 1.72 µM and a TGI (SF-539 CNS) of 3.33 µM. It also gave a GI50 (ACHN renal) of 0.699 µM, a TGI (ACHN renal) of 11.8 µM and a GI50 (EKVX NSCLC) of 1.88 µM. For the same molecule, the TGI (EKVX NSCLC) was 5.89 µM, the GI50 (HT29 colon) was 1.33 µM and the TGI (HT29 colon) was 7.33 µM. The GI50 (CCRF-CEM leukemia) was 2.06 µM, the TGI (CCRF-CEM leukemia) was 7.2 µM and the GI50 (NCI-H522 lung) was 1.84 µM. The TGI (NCI-H522 lung) was 6.13 µM, the GI50 (HOP-62 NSCLC) was 2.28 µM and the TGI (HOP-62 NSCLC) was 6.91 µM. The GI50 (NCI/ADR-RES ovarian) was 2.9 µM, the TGI (NCI/ADR-RES ovarian) was 8.62 µM and the GI50 (UACC-62 melanoma) was 1.42 µM. For the same molecule, the TGI (UACC-62 melanoma) was 3.08 µM, the GI50 (DU-145 prostate) was 1.57 µM and the TGI (DU-145 prostate) was 13.8 µM. For the same molecule, the GI50 (MOLT-4 leukemia) was 1.63 µM, the TGI (MOLT-4 leukemia) was 5.57 µM and the GI50 (NCI-H23 lung) was 1.61 µM. The TGI (NCI-H23 lung) was 5.24 µM, the GI50 (K-562 leukemia) was 2.65 µM and the TGI (K-562 leukemia) was over 33.1 µM. For the same molecule, the GI50 (HCT-116 colon) was 0.757 µM, the TGI (HCT-116 colon) was 10.6 µM and the GI50 (HOP-92 NSCLC) was 2.21 µM. For the same molecule, the TGI (HOP-92 NSCLC) was 9.47 µM, the GI50 (SW-620 colon) was 2.36 µM and the TGI (SW-620 colon) was 11.7 µM. For the same molecule, the GI50 (COLO 205 colon) was 1.29 µM, the TGI (COLO 205 colon) was 2.75 µM and the GI50 (SK-MEL-5 melanoma) was 1.79 µM. For the same molecule, the TGI (SK-MEL-5 melanoma) was 4.07 µM, the GI50 (HCT-15 colon) was 1.11 µM and the TGI (HCT-15 colon) was 9.11 µM. For the same molecule, the GI50 (IGROV1 ovarian) was 0.626 µM, the TGI (IGROV1 ovarian) was 6.57 µM and the GI50 (NCI-H460 lung) was 1.16 µM. The TGI (NCI-H460 lung) was 4.5 µM, the GI50 (RPMI-8226 leukemia) was 2.29 µM and the TGI (RPMI-8226 leukemia) was 5.21 µM. For the same molecule, the GI50 (OVCAR-4 ovarian) was 2.33 µM, the TGI (OVCAR-4 ovarian) was 10.4 µM and the GI50 (SNB-75 CNS) was 1.25 µM. For the same molecule, the TGI (SNB-75 CNS) was 2.75 µM, the GI50 (OVCAR-5 ovarian) was 0.716 µM and the TGI (OVCAR-5 ovarian) was 3.8 µM. The GI50 (RXF 393 renal) was 0.397 µM, the TGI (RXF 393 renal) was 1.64 µM and the GI50 (T-47D breast) was 1.21 µM. The TGI (T-47D breast) was 7.33 µM, the GI50 (M14 melanoma) was 1.56 µM and the TGI (M14 melanoma) was 9.09 µM. It also gave a GI50 (A498 renal) of 1.52 µM, a TGI (A498 renal) of 3.57 µM and a GI50 (PC-3 prostate) of 1.17 µM. The TGI (PC-3 prostate) was 21.4 µM, the GI50 (OVCAR-8 ovarian) was 2.59 µM and the TGI (OVCAR-8 ovarian) was 18.8 µM. For the same molecule, the GI50 (BT-549 breast) was 2.18 µM, the TGI (BT-549 breast) was 4.95 µM and the GI50 (HS 578T breast) was 1.89 µM. For the same molecule, the TGI (HS 578T breast) was 6.77 µM, the GI50 (OVCAR-3 ovarian) was 1.99 µM and the TGI (OVCAR-3 ovarian) was 8.48 µM. The GI50 (SF-295 CNS) was 2.74 µM, the TGI (SF-295 CNS) was 8.02 µM and the GI50 (TK-10 renal) was 2.42 µM. It also gave a TGI (TK-10 renal) of 12 µM, a GI50 (KM12 colon) of 0.451 µM and a TGI (KM12 colon) of 9.37 µM. For the same molecule, the GI50 (CAKI-1 renal) was 0.46 µM, the TGI (CAKI-1 renal) was 3.28 µM and the GI50 (SN12C renal) was 0.99 µM. It also gave a TGI (SN12C renal) of 5 µM, a GI50 (SNB-19 CNS) of 2.93 µM and a TGI (SNB-19 CNS) of 13.5 µM. It also gave a GI50 (SK-OV-3 ovarian) of 2.44 µM, a TGI (SK-OV-3 ovarian) of 7.53 µM and a GI50 (NCI-H226 lung) of 1.74 µM. It also gave a TGI (NCI-H226 lung) of 6.13 µM, a GI50 (SK-MEL-28 melanoma) of 1.65 µM and a TGI (SK-MEL-28 melanoma) of 5.26 µM. The GI50 (786-0 renal) was 2.71 µM, the TGI (786-0 renal) was 13 µM and the GI50 (UACC-257 melanoma) was 1.52 µM. The TGI (UACC-257 melanoma) was 3.43 µM, the GI50 (MCF7 breast) was 0.734 µM and the TGI (MCF7 breast) was 3.84 µM. It also gave a GI50 (U251 CNS) of 3.07 µM, a TGI (U251 CNS) of 14.7 µM and a GI50 (SK-MEL-2 melanoma) of 1.46 µM. It also gave a TGI (SK-MEL-2 melanoma) of 4 µM, a GI50 (HCC-2998 colon) of 2.18 µM and a TGI (HCC-2998 colon) of 7.93 µM. For the same molecule, the GI50 (UO-31 renal) was 1.06 µM, the TGI (UO-31 renal) was 7.06 µM and the GI50 (MALME-3M melanoma) was 1.4 µM. The TGI (MALME-3M melanoma) was 3.69 µM, the GI50 (MDA-MB-231 breast) was 1.97 µM and the TGI (MDA-MB-231 breast) was 7.9 µM. It also gave a GI50 (HL-60(TB) leukemia) of 0.729 µM, a TGI (HL-60(TB) leukemia) of 6.27 µM and a GI50 (MDA-MB-435) of 1.2 µM. For the same molecule, the TGI (MDA-MB-435) was 3.73 µM, the GI50 (LOX IMVI melanoma) was 0.817 µM and the TGI (LOX IMVI melanoma) was 2.29 µM.
